Results from patent US20070053837A1, “Radiopharmaceuticals for cancer diagnosis and treatment” (priority 2003, published 2007).
Square brackets hold non-standard residues; d marks the D form. Peptide text beside a SMILES is read from it. * marks the point of attachment. DOTA = O=C(O)CN1CCN(CC(=O)O)CCN(CC(=O)*)CCN(CC(=O)O)CC1; Met(O2) = CS(=O)(=O)CC[C@H](N)C(=O)O; 2Thi = N[C@@H](Cc1cccs1)C(=O)O; Sar = CNCC(=O)O

Columns and labels:
NK1 receptors = molecular target: T1, NK1 receptors (Homo sapiens, UniProt P25103); test: Binding affinity to NK-1 receptors, in vitro autoradiography, displacement of ^125I-Bolton-Hunter-SP; settings: tumor tissue expressing NK1 receptors; radioligand ^125I-Bolton-Hunter-SP; concentrations 0.1 nM to 1'000 nM; read-out: IC50 ± SEM (mean value)
T1 construct: In vitro autoradiography is performed with tumor tissue expressing NK1 receptors; from tissue
Protocol: Example C4 Binding Affinity to NK-1 Receptors In vitro autoradiography is performed with tumor tissue expressing NK1 receptors. The used radioligand is ^125I-Bolton-Hunter-SP. Displacement experiments are performed on successive sections with the various compounds listed in the Table given in concentrations ranging from 0.1 nM to 1'000 nM.

[1] = format: in vitro ADME, patients
Protocol: Further stability test by in vitro experiments incubating ^90Y-DOTAGA-Substance P in different CSF (cerebrospinal fluid) aspirates from patients are executed.

gliomas / glioblastoma = test system: gliomas / glioblastoma; set-up: species or system patients; settings: in vivo
Text: As a third group which can serve as a control, 5 advanced cases that had been treated by the so called standard regimens with virtually no therapeutic option left anymore were included. […] In cases with biopsy alone, average survival is around 9 weeks without further treatment. In the 4 cases of this pilot study, all patients survived at least 2 months and up to 9 months, and In a special case even show a remarkable partial response. In the resected 5 cases followed by Internal radionuclide conjugate brachytherapy, overall survival appeared to be longer than expected which is in the range between 14 and 26 months. According to the only large randomized trial of 1970s which serves as historical control, resection alone would have led to an expected survival of about 4 months, and resection plus an external beam radiotherapy to a mean survival of about 9.5 months. […] This interpretation of the data is further supported by an impressive partial response (case W. […] A key question in local glioma therapy is whether one can achieve to reach infiltrating tumor cell nests or satellite lesion. […] The presently used dissipative Y-90 (range 3-6 mm) is more suitable for bulky lesions.

T1 sequence (P25103 whole entry): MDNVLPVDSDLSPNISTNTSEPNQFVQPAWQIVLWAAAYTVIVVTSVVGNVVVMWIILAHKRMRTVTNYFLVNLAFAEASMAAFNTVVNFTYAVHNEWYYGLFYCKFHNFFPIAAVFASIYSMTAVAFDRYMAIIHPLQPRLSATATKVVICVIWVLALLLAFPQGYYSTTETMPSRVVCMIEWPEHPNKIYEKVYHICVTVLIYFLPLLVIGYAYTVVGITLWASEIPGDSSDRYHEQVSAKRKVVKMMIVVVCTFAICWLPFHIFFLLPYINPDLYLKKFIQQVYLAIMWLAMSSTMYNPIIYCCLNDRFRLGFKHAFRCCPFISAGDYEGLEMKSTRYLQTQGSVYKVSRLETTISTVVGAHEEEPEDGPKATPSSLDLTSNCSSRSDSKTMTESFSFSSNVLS

With CSCC[C@H](NC(=O)[C@H](CC(C)C)NC(=O)CN(C)C(=O)[C@H](Cc1cccs1)NC(=O)[C@H](Cc1ccccc1)NC(=O)[C@H](CCC(N)=O)NC(=O)[C@H](CCC(N)=O)NC(=O)[C@@H]1CCCN1C(=O)[C@H](CCCCN)NC(=O)[C@@H]1CCCN1C(=O)[C@H](CCCNC(=N)N)NC(=O)CN1CCN(CC(=O)O)CCN(CC(=O)O)CCN(CC(=O)O)CC1)C(N)=O [^111In-DOTA-[Thi^8, Sar^9]-Substance P, ^111In-DOTA-Arg^1-Pro^2-Lys^3-Pro^4-Gln^5-Gln^6-Phe^7-Thi^8-Sar^9-Leu^10-Met^11-NH2, metal not drawn] ({DOTA}-RPKPQQF[2Thi][Sar]LM-NH2) the IC50 (NK1 receptors) was 3.4 ± 0.4 nM.
In the case of CSCC[C@H](NC(=O)[C@H](CC(C)C)NC(=O)CNC(=O)[C@H](Cc1ccccc1)NC(=O)[C@H](Cc1ccccc1)NC(=O)[C@H](CCC(N)=O)NC(=O)[C@H](CCC(N)=O)NC(=O)[C@@H]1CCCN1C(=O)[C@H](CCCCN)NC(=O)[C@@H]1CCCN1C(=O)[C@H](CCCNC(=N)N)NC(=O)CCC(C(=O)O)N1CCN(CC(=O)O)CCN(CC(=O)O)CCN(CC(=O)O)CC1)C(N)=O (stereo partly drawn) [^90Y-DOTAGA-Substance P, ^90Y-DOTAGA-Arg^1-Pro^2-Lys^3-Pro^4-Gln^5-Gln^6-Phe^7-Phe^8-Gly^9-Leu^10-Met^11-NH2, metal not drawn], the “stability in CSF aspirate” value [1] is reported as “stable for several hours” and the “time to complete degradation in CSF aspirate” value [1] is reported as at most 5 h.
In the case of CC(C)C[C@H](NC(=O)CNC(=O)[C@H](Cc1cccs1)NC(=O)[C@H](Cc1ccccc1)NC(=O)[C@H](CCC(N)=O)NC(=O)[C@H](CCC(N)=O)NC(=O)[C@@H]1CCCN1C(=O)[C@H](CCCCN)NC(=O)[C@@H]1CCCN1C(=O)[C@H](CCCNC(=N)N)NC(=O)CN1CCN(CC(=O)O)CCN(CC(=O)O)CCN(CC(=O)O)CC1)C(=O)N[C@@H](CCS(C)(=O)=O)C(N)=O [^111In-DOTA-Arg^1-Pro^2-Lys^3-Pro^4-Gln^5-Gln^6Phe^7-Thi^8-Gly^9-Leu^10-Met(O2)^11—NH2, metal not drawn] ({DOTA}-RPKPQQF[2Thi]GL[Met(O2)]-NH2), the IC50 (NK1 receptors) is reported as 0.78 ± 0.03 nM.
With CSCC[C@H](NC(=O)[C@H](CC(C)C)NC(=O)CNC(=O)[C@H](Cc1ccccc1)NC(=O)[C@H](Cc1ccccc1)NC(=O)[C@H](CCC(N)=O)NC(=O)[C@H](CCC(N)=O)NC(=O)[C@@H]1CCCN1C(=O)[C@H](CCCCN)NC(=O)[C@@H]1CCCN1C(=O)[C@H](CCCNC(=N)N)NC(=O)CCC(C(=O)O)N1CCN(CC(=O)O)CCN(CC(=O)O)CCN(CC(=O)O)CC1)C(N)=O (single isomer, unassigned) [^111In-DOTAGA-Substance P, ^111In-DOTAGA-Arg^1-Pro^2-Lys^3-Pro^4-Gln^5-Gln^6-Phe^7-Phe^8-Gly^9-Leu^10-Met^11-NH2, metal not drawn] the “diffusibility: distance of satellite lesion that becomes visible” value (gliomas / glioblastoma) was 4 cm.
Work on CSCC[C@H](NC(=O)[C@H](CC(C)C)NC(=O)CNC(=O)[C@H](Cc1cccs1)NC(=O)[C@H](Cc1cccs1)NC(=O)[C@H](CCC(N)=O)NC(=O)[C@H](CCC(N)=O)NC(=O)[C@@H]1CCCN1C(=O)[C@H](CCCCN)NC(=O)[C@@H]1CCCN1C(=O)[C@H](CCCNC(=N)N)NC(=O)CN1CCN(CC(=O)O)CCN(CC(=O)O)CCN(CC(=O)O)CC1)C(N)=O [^111In-DOTA-[Thi^7, Thi^8]-Substance P, ^111In-DOTA-Arg^1-Pro^2-Lys^3-Pro^4-Gln^5-Gln^6-Thi^7-Thi^8-Gly^9-Leu^10-Met^11-NH2, metal not drawn] ({DOTA}-RPKPQQ[2Thi][2Thi]GLM-NH2) yielded an IC50 (NK1 receptors) of 7.7 ± 0.7 nM.
